Assay results taken from patent US20230085307A1, “PYRIDAZINONE COMPOUND AND HERBICIDE” (NISSAN CHEMICAL CORPORATION, priority 2019, published 2023).

Test system: late watergrass
Assay: Test Example 2: herbicidal activity, application during weed generation under submerged conditions (Table 17, symbol A)
Type: in vivo, late watergrass (Echinochloa oryzicola)
Settings: AAH 320 g/ha; application during weed generation, submerged conditions
How it was run: (§1)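 Wagner pot, alluvial soil, 4 cm flood; mixed sowing of all species; greenhouse 25° C.–30° C. Emulsifiable formulation, water-diluted to predetermined dose, applied to paddy water at 1–2 leaf stage. Effect rated at 3 wk using the earlier test's scoring criteria.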

| SMILES | herbicidal effect rating, A: late watergrass |
| --- | --- |
| C#CCOc1ccc(-c2sc3ccccc3c2-c2c(O)c(C)nn(C)c2=O)cc1 [1-136] | 0 (Herbicidal rate of 5% or less (almost no effect)) |
| Cc1nn(C)c(=O)c(-c2c(-c3ccc([N+](=O)[O-])cc3)sc3ccccc23)c1O [1-151] | 0 (Herbicidal rate of 5% or less (almost no effect)) |

Test system: redroot pigweed
Assay: Test Example 4: herbicidal effect by soil treatment (Table 19, symbol N)
Type: in vivo, redroot pigweed (Amaranthus retroflexus)
Settings: AAH 320 g/ha
How it was run: (§2)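 Applied as a water-diluted emulsion, the compound was sprayed onto soil covering newly sown seeds. Evaluation came three weeks after application, in a greenhouse held at 25° C. to 30° C.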

| SMILES | N: redroot pigweed, herbicidal effect rating |
| --- | --- |
| C#CCOc1ccc(-c2sc3ccccc3c2-c2c(O)c(C)nn(C)c2=O)cc1 [1-136] | 4 (Herbicidal rate of 70% or more and less than 90%) |
| Cc1nn(C)c(=O)c(-c2c(-c3ccc([N+](=O)[O-])cc3)sc3ccccc23)c1O [1-151] | 3 (Herbicidal rate of 40% or more and less than 70%) |

Test system: blackgrass
Assay: Test Example 5: herbicidal effect by foliage application, plastic box (Table 20, symbol J)
Type: in vivo, blackgrass (Alopecurus myosuroides)
Settings: foliage application, AAH 320 g/ha, three weeks after application
How it was run: (§3)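 Sow seeds spot-wise in sterilized diluvial soil; cover with ~1.5 cm soil. Grow 14 days in greenhouse, 25° C. to 30° C. Spray foliage with emulsion diluted to predetermined amount. Rate effect after 3 weeks.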

| SMILES | J: blackgrass, herbicidal effect |
| --- | --- |
| C#CCOc1ccc(-c2sc3ccccc3c2-c2c(O)c(C)nn(C)c2=O)cc1 [1-136] | 1 (Herbicidal rate of 5% or more and less than 20%) |
| Cc1nn(C)c(=O)c(-c2c(-c3ccc([N+](=O)[O-])cc3)sc3ccccc23)c1O [1-151] | 0 (Herbicidal rate of 5% or less (almost no effect)) |

Test system: Japanese bulrush
Assay: Test Example 1: herbicidal activity, application before weed generation under submerged conditions (Table 16, symbol B)
Type: in vivo, Japanese bulrush (Schoenoplectus juncoides)
Settings: 320 g/ha applied herbicide
How it was run: (§4)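 Emulsion formulation, water-diluted to set dose, was put onto the flooded surface (4 cm depth, alluvial soil) the same day weeds were sown and 2.5-leaf rice transplanted. After 3 weeks at 25-30 °C under glass, each species was rated 0 (≤5% kill) to 5 (≥90% kill).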

| SMILES | Herbicidal effect on B: Japanese bulrush (grade 0-5) |
| --- | --- |
| C#CCOc1ccc(-c2sc3ccccc3c2-c2c(O)c(C)nn(C)c2=O)cc1 [1-136] | 2 (Herbicidal rate of 20% or more and less than 40%) |
| Cc1nn(C)c(=O)c(-c2c(-c3ccc([N+](=O)[O-])cc3)sc3ccccc23)c1O [1-151] | 3 (Herbicidal rate of 40% or more and less than 70%) |

Test system: wild oat
Assay: Test Example 5: herbicidal effect by foliage application, plastic box (Table 20, symbol I)
Type: in vivo, wild oat (Avena fatua)
Settings: foliage application, AAH 320 g/ha, three weeks after application
How it was run: as §3

| SMILES | I: wild oat, herbicidal effect |
| --- | --- |
| C#CCOc1ccc(-c2sc3ccccc3c2-c2c(O)c(C)nn(C)c2=O)cc1 [1-136] | 0 (Herbicidal rate of 5% or less (almost no effect)) |
| Cc1nn(C)c(=O)c(-c2c(-c3ccc([N+](=O)[O-])cc3)sc3ccccc23)c1O [1-151] | 0 (Herbicidal rate of 5% or less (almost no effect)) |

Test system: rice flat sedge
Assay: Test Example 3: herbicidal effect by foliage application, Wagner pot (Table 18, symbol E)
Type: in vivo, rice flat sedge (Cyperus iria)
Settings: 320 g/ha
How it was run: (§5)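 Plants were sown in alluvial soil held under 0.1–0.5 cm standing water and grown 14 days in a greenhouse at 25–30 °C. An emulsifiable formulation, water-diluted to the set dose, was then sprayed onto the foliage, and effects were scored three weeks later using previously defined criteria.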

| SMILES | herbicidal effect on E (rice flat sedge), rating 0-5 |
| --- | --- |
| C#CCOc1ccc(-c2sc3ccccc3c2-c2c(O)c(C)nn(C)c2=O)cc1 [1-136] | 5 (Herbicidal rate of 90% or more (almost completely withered)) |
| Cc1nn(C)c(=O)c(-c2c(-c3ccc([N+](=O)[O-])cc3)sc3ccccc23)c1O [1-151] | 5 (Herbicidal rate of 90% or more (almost completely withered)) |

Test system: Chinese sprangletop
Assay: Test Example 3: herbicidal effect by foliage application, Wagner pot (Table 18, symbol D)
Type: in vivo, chinese sprangletop (Leptochloa chinensis)
Settings: 320 g/ha
How it was run: as §5

| SMILES | herbicidal effect on D (Chinese sprangletop), rating 0-5 |
| --- | --- |
| C#CCOc1ccc(-c2sc3ccccc3c2-c2c(O)c(C)nn(C)c2=O)cc1 [1-136] | 4 (Herbicidal rate of 70% or more and less than 90%) |
| Cc1nn(C)c(=O)c(-c2c(-c3ccc([N+](=O)[O-])cc3)sc3ccccc23)c1O [1-151] | 3 (Herbicidal rate of 40% or more and less than 70%) |

Test system: redroot pigweed
Assay: Test Example 5: herbicidal effect by foliage application, plastic box (Table 20, symbol N)
Type: in vivo, redroot pigweed (Amaranthus retroflexus)
Settings: foliage application, AAH 320 g/ha, three weeks after application
How it was run: as §3

| SMILES | N: redroot pigweed, herbicidal effect |
| --- | --- |
| C#CCOc1ccc(-c2sc3ccccc3c2-c2c(O)c(C)nn(C)c2=O)cc1 [1-136] | 4 (Herbicidal rate of 70% or more and less than 90%) |
| Cc1nn(C)c(=O)c(-c2c(-c3ccc([N+](=O)[O-])cc3)sc3ccccc23)c1O [1-151] | 5 (Herbicidal rate of 90% or more (almost completely withered)) |

Test system: Italian ryegrass
Assay: Test Example 5: herbicidal effect by foliage application, plastic box (Table 20, symbol K)
Type: in vivo, Italian ryegrass (Lolium multiflorum)
Settings: foliage application, AAH 320 g/ha, three weeks after application
How it was run: as §3

| SMILES | K: Italian ryegrass, herbicidal effect |
| --- | --- |
| C#CCOc1ccc(-c2sc3ccccc3c2-c2c(O)c(C)nn(C)c2=O)cc1 [1-136] | 5 (Herbicidal rate of 90% or more (almost completely withered)) |
| Cc1nn(C)c(=O)c(-c2c(-c3ccc([N+](=O)[O-])cc3)sc3ccccc23)c1O [1-151] | 5 (Herbicidal rate of 90% or more (almost completely withered)) |

Test system: Italian ryegrass
Assay: Test Example 4: herbicidal effect by soil treatment (Table 19, symbol K)
Type: in vivo, Italian ryegrass (Lolium multiflorum)
Settings: AAH 320 g/ha
How it was run: as §2

| SMILES | K: Italian ryegrass, herbicidal effect rating |
| --- | --- |
| C#CCOc1ccc(-c2sc3ccccc3c2-c2c(O)c(C)nn(C)c2=O)cc1 [1-136] | 5 (Herbicidal rate of 90% or more (almost completely withered)) |
| Cc1nn(C)c(=O)c(-c2c(-c3ccc([N+](=O)[O-])cc3)sc3ccccc23)c1O [1-151] | 3 (Herbicidal rate of 40% or more and less than 70%) |

Test system: windgrass
Assay: Test Example 4: herbicidal effect by soil treatment (Table 19, symbol L)
Type: in vivo, windgrass (Apera spica-venti)
Settings: AAH 320 g/ha
How it was run: as §2

| SMILES | L: windgrass, herbicidal effect rating |
| --- | --- |
| C#CCOc1ccc(-c2sc3ccccc3c2-c2c(O)c(C)nn(C)c2=O)cc1 [1-136] | 0 (Herbicidal rate of 5% or less (almost no effect)) |
| Cc1nn(C)c(=O)c(-c2c(-c3ccc([N+](=O)[O-])cc3)sc3ccccc23)c1O [1-151] | 0 (Herbicidal rate of 5% or less (almost no effect)) |

Test system: barnyard grass
Assay: Test Example 5: herbicidal effect by foliage application, plastic box (Table 20, symbol H)
Type: in vivo, barnyard grass (Echinochloa crus-galli)
Settings: foliage application, AAH 320 g/ha, three weeks after application
How it was run: as §3

| SMILES | H: barnyard grass, herbicidal effect |
| --- | --- |
| C#CCOc1ccc(-c2sc3ccccc3c2-c2c(O)c(C)nn(C)c2=O)cc1 [1-136] | 4 (Herbicidal rate of 70% or more and less than 90%) |
| Cc1nn(C)c(=O)c(-c2c(-c3ccc([N+](=O)[O-])cc3)sc3ccccc23)c1O [1-151] | 3 (Herbicidal rate of 40% or more and less than 70%) |

Test system: barnyard grass
Assay: Test Example 3: herbicidal effect by foliage application, Wagner pot (Table 18, symbol H)
Type: in vivo, barnyard grass (Echinochloa crus-galli)
Settings: 320 g/ha
How it was run: as §5

| SMILES | herbicidal effect on H (barnyard grass), rating 0-5 |
| --- | --- |
| C#CCOc1ccc(-c2sc3ccccc3c2-c2c(O)c(C)nn(C)c2=O)cc1 [1-136] | 5 (Herbicidal rate of 90% or more (almost completely withered)) |
| Cc1nn(C)c(=O)c(-c2c(-c3ccc([N+](=O)[O-])cc3)sc3ccccc23)c1O [1-151] | 4 (Herbicidal rate of 70% or more and less than 90%) |

Test system: late watergrass
Assay: Test Example 1: herbicidal activity, application before weed generation under submerged conditions (Table 16, symbol A)
Type: in vivo, late watergrass (Echinochloa oryzicola)
Settings: 320 g/ha applied herbicide
How it was run: as §4

| SMILES | Herbicidal effect on A: late watergrass (grade 0-5) |
| --- | --- |
| C#CCOc1ccc(-c2sc3ccccc3c2-c2c(O)c(C)nn(C)c2=O)cc1 [1-136] | 3 (Herbicidal rate of 40% or more and less than 70%) |
| Cc1nn(C)c(=O)c(-c2c(-c3ccc([N+](=O)[O-])cc3)sc3ccccc23)c1O [1-151] | 3 (Herbicidal rate of 40% or more and less than 70%) |

Test system: green foxtail
Assay: Test Example 5: herbicidal effect by foliage application, plastic box (Table 20, symbol G)
Type: in vivo, green foxtail (Setaria viridis)
Settings: foliage application, AAH 320 g/ha, three weeks after application
How it was run: as §3

| SMILES | G: green foxtail, herbicidal effect |
| --- | --- |
| C#CCOc1ccc(-c2sc3ccccc3c2-c2c(O)c(C)nn(C)c2=O)cc1 [1-136] | 5 (Herbicidal rate of 90% or more (almost completely withered)) |
| Cc1nn(C)c(=O)c(-c2c(-c3ccc([N+](=O)[O-])cc3)sc3ccccc23)c1O [1-151] | 3 (Herbicidal rate of 40% or more and less than 70%) |

Test system: oval-leafed pondweed
Assay: Test Example 2: herbicidal activity, application during weed generation under submerged conditions (Table 17, symbol C)
Type: in vivo, oval-leafed pondweed (Monochoria vaginalis)
Settings: AAH 320 g/ha; application during weed generation, submerged conditions
How it was run: as §1

| SMILES | herbicidal effect rating, C: oval-leafed pondweed |
| --- | --- |
| C#CCOc1ccc(-c2sc3ccccc3c2-c2c(O)c(C)nn(C)c2=O)cc1 [1-136] | 0 (Herbicidal rate of 5% or less (almost no effect)) |
| Cc1nn(C)c(=O)c(-c2c(-c3ccc([N+](=O)[O-])cc3)sc3ccccc23)c1O [1-151] | 0 (Herbicidal rate of 5% or less (almost no effect)) |
